From patent US20240415793A1, “Neuroprotective composition comprising pyruvate and citrate” (N.V. Nutricia, priority 2022, published 2024)

Tests used:
neuroglial cell cultures = assay: Seahorse assay (OCR/ECAR), acute effects under seizure- and ketogenic diet-like conditions; type: cell-based, rat; details: HBSS, 0.1 mM Mg2+, 1 mM glucose, 500 μM bHB, 1 mM pyruvate, 1 mM citrate as added, vs control medium
Protocol: (§1) The oxygen consumption rates (OCRs) and extracellular acidification rates (ECARs) of cells seeded in 96-well plates were monitored in real time at 37° C. in unbuffered Hanks Balanced Salt Solution (HBSS). The OCRs represent foremost mitochondrial respiration, and to a minor extent non-mitochondrial respiration. The ECARs relate foremost to the acidification of the medium with lactate produced through glycolysis and secreted by the cells into the medium (Table 1).
(§2) During the Seahorse run, both the OCRs and ECARs were measured simultaneously at baseline and following the injection of compounds by the Seahorse instrument (Table 1). HBSS was supplemented with glucose from the start and no glucose was injected through the Seahorse instruments. Measurements were repeated three times at baseline and three times after each compound injection.
(§3) After the initial baseline measurement, oligomycin (OM) was injected. OM blocks mitochondrial ATP synthase (complex V) and therefore decreases mitochondrial respiration. The OCRs after OM injection are due to the mitochondrial proton leak. They enable to determine whether the test nutrients impact the proton leak. The difference in OCRs at baseline and after OM injection is the amount of oxygen used for mitochondrial ATP synthesis at baseline. From this difference in OCR, the mitochondrial ATP production rates are calculated.
After OM, uncoupling agent carbonyl cyanide-p- trifluoromethoxyphenyl-hydrazon [FCCP] was injected which collapses the proton gradient across the inner mitochondrial membrane established during respiration and required for ATP synthesis. The cells attempt to restore the proton gradient following FCCP injection by maximizing respiration. The OCRs measured after FCCP injection therefore represent the maximal respiratory capacity of the mitochondria in the sample and enable to determine whether test nutrients impact the maximal respiratory capacity of the mitochondria.
Finally, Antimycin A, a complex III inhibitor, and Rotenone, a complex I inhibitor, were co-injected, both blocking the respiratory chain at different sites to entirely shut down mitochondrial respiration and determine the non-mitochondrial respiration. The latter is necessary to correct all OCRs and obtain the mitochondrial OCRs.
The ECARs were measured simultaneously at baseline and after OM and FCCP injection. The glycolytic ATP production was calculated from the baseline ECARs. The subsequent injection of OM pushed the cells to maximize their glycolytic ATP production to compensate for the loss in mitochondrial ATP production inflicted by OM. The further addition of FCCP drove mitochondrial respiration to a maximum and this eventually led to a further increase in glycolytic rates providing pyruvate into the TCA cycle to sustain maximal respiration. Therefore, the ECARs after FCCP injection were used to determine the maximum glycolytic capacity of the cells.
To assess the effect of citrate and pyruvate under seizure- and ketogenic diet-like conditions a batch of cells was switched one hour prior to the Seahorse run to HBSS medium (which is a nutrient deprived culture medium) containing low (1 mM) glucose, 500 μM bHB and low (0.1 mM) Mg^2+, 1 mM citrate or 1 mM pyruvate (FIG. 6). The ketone p-hydroxybutyrate (bHB) was included during the Seahorse run at a concentration of 500 μM to mimic the nutrient environment of a ketogenic diet. This bHB concentration corresponds to the circulating bHB concentration of a mild ketogenic diet such as the Modified Atkins Diet.
For the Seahorse assay that was run under seizure- and ketogenic diet like-conditions the cells were then incubated in HBSS medium containing low (0.1 mM) Mg^2+ and one of the following additions: • i) 1 mM glucose (control medium), • ii) 500 μM bHB, • iii) 500 μM bHB plus 1 mM citrate, • iv) 500 μM bHB plus 1 mM pyruvate or • v) 500 μM bHB with 1 mM citrate plus 1 mM pyruvate. […]

[1] = test system: primary rat neuronal-glial cell cultures; assay: Seahorse assay (OCR/ECAR), acute 1 h nutrient pre-incubation, resting or seizure-like conditions; type: cell-based
[2] = test system: primary mouse neuroglial cultures; assay: Cell death by high content imaging (Hoechst/NeuN nuclear shrinkage) after chronic hyperstimulation; type: cell-based; details: 1 mM; for dead neuron count (neuron death): FIG. 10F/11F
Protocol: To determine whether pyruvate and citrate protect neurons and glial cells from cell death induced by chronic electrical hyperstimulation. To assess protection from cell death induced by repeated hyperstimulation, primary mouse neuroglial cultures were assayed. Neuroglial cell cultures were prepared and grown until DIV14 as described above. From DIV14 until DIV17 they were switched to NBM containing B27, low (2.5 mM) glucose, and low (0.1 mM) Mg^2+ or high (0.8 mM) Mg^2+. Incubation in low (0.1 mM) Mg^2+ medium increases the neuronal firing rates, thus creating a state of chronic hyperstimulation. The test nutrients (pyruvate or citrate) were supplied through the medium from DIV14 until DIV17. On DIV17, the cell nuclei were stained with the Hoechst dye and co-immunolabelled for NeuN, a protein found only in the nuclei of neurons. The neuronal and non-neuronal cell nuclei were scored for nuclear shrinkage, a hallmark of cell death, by high content imaging.
To assess cell death by high content imaging the cells were fixed on DIV17 in 1% formaldehyde, permeabilized with ethanol and incubated with a rabbit polyclonal IgG antibody against NeuN, a neuron-specific protein localized to the nucleus, followed by detection with a secondary anti-rabbit IgG antibody linked to a red fluorescent label. Neuronal and non-neuronal cell nuclei were then counterstained with the blue fluorescent nuclear dye Hoechst. The nuclei were counted by a high content imager based on signal intensity and size. A cut-off value was applied to exclude objects of low signal intensity considered noise. Then, cut-off values were applied to exclude objects with an area below 30 μM^2 considered cell debris and objects with an area above 300 μM^2 considered cell clumps. A boundary of 60 μM^2 was set to distinguish between nuclei from alive and dead cells. Objects areas of 30 μM^2 to 60 μM^2 were counted as nuclei from dead cells, while object areas of 60 μM^2 to 300 μM^2 were counted as nuclei from alive cells. The counting was done at 20-fold magnification on a fixed number of optical fields per well. The counts of nuclei from dead neurons or dead cells were related to the number of alive neurons or alive cells, respectively, in the same well.
Neuroglial cell cultures were supplemented with 1 mM citrate from DIV14 until DIV17. On DIV17, total cell death and neuron-specific cell death were quantified by high content imaging. The total number of Hoechst positive objects or NeuN positive objects prior to applying cut-off values for the signal intensity and the area size was equal between the different groups (FIG. 10 A, D).

[3] = test system: primary rat neuronal-glial cell cultures; assay: Seahorse assay (OCR/ECAR), acute 1 h nutrient pre-incubation, resting or seizure-like conditions; type: cell-based; details: 0.25 mM and 1 mM pyruvate in low Mg2+ medium vs low Mg2+ medium without pyruvate
Protocol: A Seahorse assay was performed on primary rat neuronal-glial cell cultures to determine the impact of pyruvate and citric acid on glycolytic rates and lactate delivery, mitochondrial respiration and total (glycolytic and mitochondrial) ATP production.
Rat cortical cells were isolated from embryonic day 18 embryos using a combination of enzymatic and mechanical dissociation of brain cortical rat tissue. Immediately after dissociation, the cells were seeded at a density of 500′000 cells per mL in 96-well plates and grown at 37° C. for two weeks from day in vitro (DIV) 0 until DIV14 in Neurobasal medium supplemented with 2% (v/v) B27, 0.8 mM Magnesium (Mg2+), 25 mM glucose and 1% (v/v) Penicillin/Streptomycin. During this time neuronal axons grew out and formed synaptic contacts. In addition, glial cells, foremost astrocytes, grew and formed contacts with neurons. The incubation in 25 mM glucose accelerated the differentiation and network growth of neurons.
From DIV14 until DIV17, the cells were incubated in Neurobasal medium supplemented with 2% (v/v) B27, 0.8 mM Mg2+, 5 mM glucose and 1% (v/v) Penicillin/Streptomycin. The switch from high to low glucose was done to approach the low intracerebral glucose concentration of the human brain and create a more physiological metabolic environment.
The switch from 5 mM to 1 mM glucose matched the glucose concentrations in the human brain. Meanwhile the switch from high (0.8 mM) to low (0.1 mM) Mg^2+ increases the electrical firing frequency of neurons because Mg2+ is an inhibitor of excitatory NMDA-type ionotropic glutamate receptors, which account for most of the neuronal firing in this cell culture model. The increase in neuronal firing caused by incubation in 0.1 mM Mg^2+ increases the energy production of neurons and glial cells as reflected in the increase in basal respiration (FIG. 1B and E). After 1 hour of pre-incubation in the Seahorse medium containing the nutrients, the oxygen consumption rate [OCRs] and extracellular acidification rate [ECARs] of the neuroglial culture were measured in the Seahorse assay.
as §1, §2, §3
After OM, uncoupling agent carbonyl cyanide-p- trifluoromethoxyphenyl-hydrazon [FCCP] was injected which collapses the proton gradient across the inner mitochondrial membrane established during respiration and required for ATP synthesis. The cells attempt to restore the proton gradient following FCCP injection by maximizing respiration. […]

Structure (SMILES) | change in basal glycolytic ATP production (neuroglial cell cultures; FIG. 6A) | change in total (mitochondrial and glycolytic) ATP production (neuroglial cell cultures; FIG. 6A) | change in basal (mitochondrial) respiration (neuroglial cell cultures; FIG. 6B) | change in FCCP-driven maximal respiratory capacity (neuroglial cell cultures; FIG. 6D) | change in basal glycolysis (neuroglial cell cultures; FIG. 7A) | change in FCCP-driven maximal glycolytic capacity (neuroglial cell cultures; FIG. 7C) | increase in total (mitochondrial and glycolytic) ATP production rates ([1]; 0.25 mM and 1 mM pyruvate in low (0.1 mM) Mg2+ medium vs low Mg2+ medium without pyruvate, FIG. 1A) | increase in FCCP-driven maximal respiratory capacity ([1]; 0.25 mM and 1 mM pyruvate in low Mg2+ medium vs low Mg2+ medium without pyruvate, FIG. 1D) | increase in dead cell counts from high Mg2+ to low Mg2+ medium ([2]; DIV14-DIV17, chronic hyperstimulation, FIG. 10C/11C) | dead cell counts ([2]; DIV14-DIV17, high (0.8 mM) Mg2+ medium, FIG. 10C/11C) | dead neuron count (neuron death) ([2]; DIV14-DIV17, high Mg2+ medium) | dead cell counts ([2]; DIV14-DIV17, low (0.1 mM) Mg2+ medium, FIG. 10C/11C) | dead neuron count (neuron death) ([2]; DIV14-DIV17, low Mg2+ medium) | increase in basal respiration ([3]; FIG. 1B) | increase in oligomycin-induced proton leak ([3]; FIG. 1C) | increase in glycolytic rates at baseline ([3]; FIG. 2A) | increase in glycolytic rates after FCCP injection ([3]; FIG. 2C)
CC(O)CC(=O)O (centres unmarked) [bHB, b-hydroxybutyrate] | did not alter | did not impact | did not impact | did not impact | did not alter | did not alter | – | – | – | – | – | – | – | – | – | – | –
CC(=O)C(=O)O [pyruvate] | – | – | – | – | – | – | 400-500% | 200-250% | ~1% | ~19% | −1.5% | ~20% | ~1.4% | 30-40% | 10-15% | 15-20% | 20-30%
